In patent US6583138B1, “Heterocyclic-ring condensed benzothiazine compound” (Eisai Co., Ltd., priority 1998, dated 2003):
Like-named read-outs stand apart in the source and are kept apart here.

Key:
human basophils = assay: Inhibition of mediator (histamine, peptide leukotriene) liberation from human basophils stimulated with mite antigen; type: cell-based; details: leukocyte fraction, enzyme immunoassay
Method: (2) Inhibitory Effects on Various Mediators Release from Human Basophils
6 ml of 6% dextran (for separating leukocytes, having a high molecular weight) was added to 20 ml of heparinized blood. After stirring well, the resulting mixture was allowed to stand at 37° C. for 30 min and thus erythrocytes were precipitated. The upper layer was taken up and phosphate buffered saline was added thereto followed by centrifugation at 185 g for 8 minutes to give a crude leukocyte fraction. These cells were subjected to hypotonic hematolysis and then suspended in D-PBS(+) containing 0.1%-BSA. The resulting suspension was used in the subsequent experiment as the leukocyte fraction containing basophils. 0.4 ml of this cell suspension was preliminarily heated to 37° C. for 5 min and then 0.05 ml of a specimen solution was added thereto followed by a pretreatment at 37° C. for 15 min. Next, 0.05 ml of a mite antigen solution was added thereto to induce an antigen-antibody reaction. After 10 min, the reaction was ceased by ice-cooling. Then the reaction mixture was centrifuged again at 185 g for 10 min and histamine and peptide leukotrienes in the resulting supernatant were determined by using enzyme immunoassay kits. From the results of the assay, the activities of the a heterocyclic ring condensed benzothiazine compound of inhibiting the liberation of histamine and peptide leukotriene were determined.
The results are given in Table 2, wherein the term “leukotriene” means peptide leukotriene.

RBL-2H3 cells = assay: Inhibition of serotonin liberation from IgE-sensitized, antigen-stimulated RBL-2H3 cells; type: cell-based; details: Rattus norvegicus, [3H]-serotonin release, IgE-sensitized cells stimulated with specific antigen
Source text: (1) Inhibitory Effects on Various Mediators Release from Rat Basophilic Leukemia Cell Line (RBL-2H3)
RBL-2H3cells (i.e., a cell line originating in rat cells), by stimulation with IgE sepecific antigen, not only release histamine and serotonin but also release and produce cytokines such as TNF α and prostaglandins which are inflammatory mediators. In this experimental system, inhibitory effects on various mediators release were examined by using serotonin as an indication.
The cells were beforehand labeled with [^3H]-labeled serotonin and, at the same time, sensitized with the IgE antibody. After incubating with the compounds of the present invention, they were stimulated with the specific antigen. Then the inhibitory activity of each compound was calculated from the amount of the [^3H]-labeled serotonin thus liberated into the medium due to the stimulation and the amount of [^3H]-labeled serotonin liberated when no compound of the present invention was added.

[1] = histamine, read-out: IC50 (μM) in mediator liberation from human basophils: histamine
[2] = peptide leukotriene, read-out: IC50 (μM) in mediator liberation from human basophils: leukotriene

SMILES | IC50 (human basophils; [1]) | IC50 (human basophils; [2]) | IC50 (RBL-2H3 cells)
Cc1ccc2c(c1C)N(CCCNCc1ccccc1)c1ccsc1[S+]2[O-] (centres unmarked) [Example 1, 9-(3-Benzylaminopropyl)-7,8-dimethyl-3-thieno [1,4]benzothiazine-4-oxide] | 10 to 30 µM | 10 µM | 2 µM
Cc1ccc2c(c1C)N(CCCNC(C)(C)c1ccccc1)c1ccsc1[S+]2[O-] (centres unmarked) [Example 2] | 30 µM | 10 to 30 µM | 
Cc1ccc2c(c1C)N(CCCN)c1ccsc1[S+]2[O-] (centres unmarked) [Example 3, 9-(3-Aminopropyl)-7,8-dimethyl-3-thieno[1,4]benzothiazine-4-oxide] |  |  | 8 µM
Cc1ccc2c(c1C)N(CCCNCc1cccs1)c1ccsc1[S+]2[O-] (centres unmarked) [Example 4, 7,8-Dimethyl-9-[3-(2-thiophenyl)methylaminopropyl]-3-thieno[1,4]benzothiazine-4-oxide] | 10 to 30 µM | 10 µM | 2 µM
COc1ccc(CNCCCN2c3ccsc3[S+]([O-])c3ccc(C)c(C)c32)o1 (centres unmarked) [Example 5] |  |  | 6 µM
COc1ccsc1CNCCCN1c2ccsc2[S+]([O-])c2ccc(C)c(C)c21 (centres unmarked) [Example 6] | 30 µM | 10 to 30 µM | 2 µM
Cc1ccc2c(c1C)N(CCCNC(C)(C)c1ccccc1)c1c(Br)csc1[S+]2[O-] (stereo not drawn) [Example 7, 1-Bromo-7,8-dimethyl-9-[3-(α,α-dimethylbenzyl)aminopropyl]-3-thieno[1,4]benzothiazine-4-oxide] | 3 to 10 µM | 3 to 10 µM | 2 µM
Cc1ccc2c(c1C)N(CCCNCc1ccccc1)c1c(Br)csc1[S+]2[O-] (centres unmarked) [Example 8, 9-(3-benzylaminopropyl)-7,8-dimethyl-3-thieno[1,4]benzothiazine-4-oxide] | 10 µM | 3 µM | 1 µM
COc1ccsc1CNCCCN1c2c(Br)csc2[S+]([O-])c2ccc(C)c(C)c21 (centres unmarked) [Example 9] | 10 to 30 µM | 3 µM | 0.5 µM
Cc1ccc2c(c1C)N(CCCNCc1cccc(F)c1O)c1c(Br)csc1[S+]2[O-] (centres unmarked) [Example 10] | 30 µM | 3 to 10 µM | 0.5 µM
Cc1ccc2c(c1C)N(CCCNCc1ccccc1)c1c(CO)csc1[S+]2[O-] (centres unmarked) [Example 11, 9-(3-benzylaminopropyl)-1-hydroxymethyl-7,8dimethyl-3-thieno[1,4]benzothiazine-4-oxide] | 10 µM | 3 µM | 5 µM
Cc1ccc2c(c1C)N(CCCNCc1ccccc1)c1c(sc(CO)c1Br)[S+]2[O-] (centres unmarked) [Example 12, 1-Bromo-9-(3-benzylaminopropyl)-2-hydroxymethyl-7,8-dimethyl-3-thieno[1,4]benzothiazine-4-oxide] | 10 µM | 3 µM | 4 µM
Cc1ccc2c(c1C)N(CCCN)c1cccnc1[S+]2[O-] (centres unmarked) [Example 13] |  |  | 3 µM
Cc1ccc2c(c1C)N(CCCNCc1ccccc1)c1cccnc1[S+]2[O-] (centres unmarked) [Example 15] |  |  | 0.5 µM
Cc1ccc2c(c1C)N(CCCNCc1ccccc1O)c1cccnc1[S+]2[O-] (centres unmarked) [Example 16] | 10 µM | 10 to 30 µM | 2 µM
COc1cccc(CNCCCN2c3cccnc3[S+]([O-])c3ccc(C)c(C)c32)c1O (centres unmarked) [Example 17] | 10 to 30 µM | 10 to 30 µM | 2 µM
Cc1ccc2c(c1C)N(CCCNCc1cccc(C)c1O)c1cccnc1[S+]2[O-] (centres unmarked) [Example 18] | 30 µM | 10 to 30 µM | 2 µM
Cc1ccc2c(c1C)N(CCCCNCc1ccccc1)c1cccnc1[S+]2[O-] (centres unmarked) [Example 19] |  |  | 1 µM
COc1ccccc1CNCCCN1c2cccnc2[S+]([O-])c2ccc(C)c(C)c21 (centres unmarked) [Example 20] |  |  | 5 µM
COc1cccc(CNCCCN2c3cccnc3[S+]([O-])c3ccc(C)c(C)c32)c1 (centres unmarked) [Example 24] |  |  | 4 µM

SMILES | IC50 (human basophils; [1]) | IC50 (human basophils; [2]) | IC50 (RBL-2H3 cells)
COc1ccc(CNCCCN2c3cccnc3[S+]([O-])c3ccc(C)c(C)c32)cc1 (centres unmarked) [Example 25] |  |  | 2 µM
Cc1ccc2c(c1C)N(CCCNCN1CCN(Cc3ccccc3)CC1)c1cccnc1[S+]2[O-] (centres unmarked) [Example 26] |  |  | 2 µM
Cc1ccc2c(c1C)N(CCCNCc1ccc(Cl)cc1Cl)c1cccnc1[S+]2[O-] (centres unmarked) [Example 31] | 10 to 30 µM | 10 µM | 2 µM
COc1c(CNCCCN2c3cccnc3[S+]([O-])c3ccc(C)c(C)c32)ccc(Cl)c1Cl (centres unmarked) [Example 33] | 10 to 30 µM | 3 to 10 µM | 2 µM
Cc1ccc2c(c1C)N(CCCNC(C)(C)c1ccccc1)c1cccnc1[S+]2[O-] (centres unmarked) [Example 34] |  |  | 5 µM
Cc1ccc2c(c1C)N(CCCN(C)Cc1ccccc1)c1cccnc1[S+]2[O-] (centres unmarked) [Example 35] |  |  | 3 µM
Cc1ccc2c(c1C)N(CCCNCc1ccccc1)c1cnccc1[S+]2[O-] (centres unmarked) [Example 36] |  |  | 4 µM
COc1cccc(CNCCCN2c3cnccc3[S+]([O-])c3ccc(C)c(C)c32)c1O (centres unmarked) [Example 37] | 30 µM | 30 µM | 3 µM
Cc1ccc2c(c1C)N(CCCNCc1ccccc1N(C)C)c1cnccc1[S+]2[O-] (centres unmarked) [Example 38] |  |  | 4 µM
Cc1ccc2c(c1C)N(CCCNCN1CCN(Cc3ccccc3)CC1)c1cnccc1[S+]2[O-] (centres unmarked) [Example 39] |  |  | 3 µM
Cc1ccc2c(c1C)N(CCCNCc1ccccn1)c1cnccc1[S+]2[O-] (centres unmarked) [Example 40] |  |  | 4 µM
Cc1ccc2c(c1C)N(CCCNCc1cccc(F)c1O)c1cnccc1[S+]2[O-] (centres unmarked) [Example 41] |  |  | 3 µM
COc1ccc2c(n1)[S+]([O-])c1ccc(C)c(C)c1N2CCCNCc1ccccc1 (centres unmarked) [Example 43] | 30 µM | 10 µM | 2 µM
Cc1ccc2c(n1)[S+]([O-])c1ccc(C)c(C)c1N2CCCNCc1ccccc1 (centres unmarked) [Example 44] |  |  | 2 µM
Cc1ccc2c(c1C)N(CCCNCc1ccccc1)c1cc(Br)cnc1[S+]2[O-] (centres unmarked) [Example 45] |  |  | 1 µM
Cc1ccc2c(c1C)N(CCCNCc1ccccc1)c1cc(Cl)cnc1[S+]2[O-] (centres unmarked) [Example 46] |  |  | 2 µM
Cc1cnc2c(c1)N(CCCNCc1ccccc1)c1c(ccc(C)c1C)[S+]2[O-] (centres unmarked) [Example 47] |  |  | 3 µM
Cc1ccc2c(c1C)N(CCCNCc1ccccc1)c1cc(C#N)cnc1[S+]2[O-] (centres unmarked) [Example 48] |  |  | 4 µM
CCCOc1ccc2c(n1)[S+]([O-])c1ccc(C)c(C)c1N2CCCNCc1ccccc1 (centres unmarked) [Example 49] | 10 to 30 µM | 3 µM | 2 µM
CCOc1ccc2c(n1)[S+]([O-])c1ccc(C)c(C)c1N2CCCNCc1ccccc1 (centres unmarked) [Example 52] | 10 to 30 µM | 3 µM | 3 µM
